Reference: patent US12492188B2, “1H-benzo[D]imidazole derivatives as TLR9 inhibitors for the treatment of fibrosis” (BRISTOL-MYERS SQUIBB COMPANY, priority 2020, dated 2025)
Read-outs that look alike come from different tables or passages of the source.

Target: T1, human TLR9 (Homo sapiens, UniProt Q9NR96)
T1 construct: host or cells: HEK-Blue cells (HEK293-derived reporter line)
T1 sequence (Q9NR96 26-1032): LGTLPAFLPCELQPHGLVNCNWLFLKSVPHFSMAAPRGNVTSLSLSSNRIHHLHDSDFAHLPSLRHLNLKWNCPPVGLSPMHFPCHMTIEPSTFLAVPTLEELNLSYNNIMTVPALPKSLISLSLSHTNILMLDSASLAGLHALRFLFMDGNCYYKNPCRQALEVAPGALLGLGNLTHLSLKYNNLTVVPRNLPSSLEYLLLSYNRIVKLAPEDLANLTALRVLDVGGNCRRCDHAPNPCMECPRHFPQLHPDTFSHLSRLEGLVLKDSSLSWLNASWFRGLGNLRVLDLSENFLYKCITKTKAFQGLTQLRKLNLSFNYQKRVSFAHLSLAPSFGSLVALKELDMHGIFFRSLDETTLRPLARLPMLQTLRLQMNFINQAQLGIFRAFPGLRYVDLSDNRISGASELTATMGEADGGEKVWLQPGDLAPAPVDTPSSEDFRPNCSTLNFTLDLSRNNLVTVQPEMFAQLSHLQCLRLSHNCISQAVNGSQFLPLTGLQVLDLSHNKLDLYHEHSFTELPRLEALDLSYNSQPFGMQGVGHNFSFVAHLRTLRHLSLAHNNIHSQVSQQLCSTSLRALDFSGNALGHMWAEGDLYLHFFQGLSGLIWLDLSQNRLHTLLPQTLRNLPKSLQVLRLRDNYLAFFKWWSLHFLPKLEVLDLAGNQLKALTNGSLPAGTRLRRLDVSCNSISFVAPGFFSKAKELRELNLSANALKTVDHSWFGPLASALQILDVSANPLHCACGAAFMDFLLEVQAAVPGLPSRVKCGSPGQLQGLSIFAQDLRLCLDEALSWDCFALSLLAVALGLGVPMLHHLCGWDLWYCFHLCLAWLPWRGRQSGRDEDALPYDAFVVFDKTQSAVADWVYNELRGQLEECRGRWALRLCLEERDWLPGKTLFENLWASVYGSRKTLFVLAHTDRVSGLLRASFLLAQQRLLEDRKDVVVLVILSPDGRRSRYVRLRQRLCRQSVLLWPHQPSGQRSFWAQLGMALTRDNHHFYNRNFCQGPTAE
Experiment: TLR9 inhibition reporter assay (HEK-Blue cells, secreted embryonic alkaline phosphatase reporter)
Format: cell-based
Protocol: TLR7/8/9 Inhibition Reporter Assays
HEK-Blue™-cells (Invivogen) overexpressing human TLR7, TLR8 or TLR9 receptors were used for screening inhibitors of these receptors using an inducible SLAP (secreted embryonic alkaline phosphatase) reporter gene under the control of the […] minimal promoter fused to five NF-κB and AP-1-binding sites. Briefly, cells are seeded into Greiner 384 well plates (15000 cells per well for TLR7, 20,000 for TLR8 and 25,000 for TLR9) and then treated with test compounds in DMSO to yield a final dose response concentration range of 0.05 nM-50 μM. After a 30 minute compound pre-treatment at room temperature, the cells are then stimulated with a TLR7 ligand (gardiquimod at a final concentration of 7.5 μM), TLR8 ligand (R848 at a final concentration of 15.9 μM) or TLR9 ligand (ODN2006 at a final concentration of 5 nM) to activate NF-κB and AP-1 which induce the production of SLAP. After a 22 hour incubation at 37° C., […], SLAP levels are determined with the addition of HEK-Blue™ Detection reagent (Invivogen), a cell culture medium that allows for detection of SLAP, according to manufacturer's specifications. The percent inhibition is determined as the […] in the HEK-Blue signal present in wells treated with agonist plus DMSO alone compared to wells treated with a known inhibitor.

[1] = HEK-Blue cells overexpressing human TLR9, stimulated with ODN2006 5 nM, 22 hour incubation, reporter readout
[2] = HEK-Blue cells overexpressing human TLR9, stimulated with ODN2006 5 nM, read-out: TLR 9 IC50

| Compound | IC50 [1] | IC50 [2] | IC50 | IC50 (HEK-Blue human TLR9 reporter cells) |
| --- | --- | --- | --- | --- |
| Cc1cc(C2CCN(C3CCN(CC(C)C)CC3)CC2)cc2[nH]c(-c3nccs3)nc12 [Example 79, 2-(6-(1′-isobutyl-[1,4′-bipiperidin]-4-yl)-4-methyl-1H-benzo[d]imidazol-2-yl)thiazole] | 110 nM | 111 nM | – | – |
| Cc1cc(C2CCN(C3CC4(C3)CN(CC(C)C)C4)CC2)cc2c1nc(-c1ccc(S(C)(=O)=O)cc1)n2C [Example 141, 6-(1-(2-isobutyl-2-azaspiro[3.3]heptan-6-yl)piperidin-4-yl)-1,4-dimethyl-2-(4-(methylsulfonyl)phenyl)-1H-benzo[d]imidazole] | – | 248 nM | 250 nM | – |
| COc1cc(-c2nc3c(C)cc(C4CCN(C5CC6CCC(C5)N6C5CCC5)CC4)cc3n2C)cn2ncnc12 (single isomer, unassigned) [Example 356, 6-(6-(1-(8-cyclobutyl-8-azabicyclo[3.2.1]octan-3-yl)piperidin-4-yl)-1,4-dimethyl-1H-benzo[d]imidazol-2-yl)-8-methoxy-[1,2,4]triazolo[1,5-a]pyridine] | – | 41 nM | – | 41 nM |
| Cc1cc(C2CCN(C3CCN(CC(C)C)CC3)CC2)cc2[nH]c(-c3ccc(S(C)(=O)=O)c(F)c3)nc12 [Example 66, 2-(3-fluoro-4-(methylsulfonyl)phenyl)-6-(1′-isobutyl-[1,4′-bipiperidin]-4-yl)-4-methyl-1H-benzo[d]imidazole] | 69 nM | 69 nM | – | – |
| COc1ccc(-c2nc3c(C)cc(C4CCN(C5CC6CCC(C5)N6C5CCC5)CC4)cc3n2C)cc1OC (stereo not shown) [Example 146, 6-(1-(8-cyclobutyl-8-azabicyclo[3.2.1]octan-3-yl)piperidin-4-yl)-2-(3,4-dimethoxyphenyl)-1,4-dimethyl-1H-benzo[d]imidazole] | – | 70 nM | 70 nM | – |
| CS(=O)(=O)c1ccc(-c2nc3c(F)cc(-c4ccc(CN5CC6(C5)CN(C5CCOCC5)C6)cc4)cc3n2C2CC2)cc1 [Example 412, 1-cyclopropyl-4-fluoro-2-(4-(methylsulfonyl)phenyl)-6-(4-((6-(tetrahydro-2H-pyran-4-yl)-2,6-diazaspiro[3.3]heptan-2-yl)methyl)phenyl)-1H-benzo[d]imidazole] | 77 nM | 77 nM | – | – |
| Cc1cc(C2CCN(C3CCN(CC(C)C)CC3)CC2)cc2[nH]c(-c3nc4ccccc4s3)nc12 [Example 70, 2-(6-(1′-isobutyl-[1,4′-bipiperidin]-4-yl)-4-methyl-1H-benzo[d]imidazol-2-yl)benzo[d]thiazole tris(2,2,2-trifluoroacetate)] | 210 nM | 208 nM | – | – |

Now those with a lower IC50 [2], led by results:

| IC50 [1] | IC50 [2] | IC50 | IC50 (HEK-Blue human TLR9 reporter cells) | Compound |
| --- | --- | --- | --- | --- |
| 31 nM | 31 nM | – | – | Cc1cc(C2CCN(C3CCN(CC(C)C)CC3)CC2)cc2[nH]c(-c3cccc4ncsc34)nc12 [Example 77, 7-(6-(1′-isobutyl-[1,4′-bipiperidin]-4-yl)-4-methyl-1H-benzo[d]imidazol-2-yl)benzo[d]thiazole] |
| – | 24 nM | 24 nM | – | COc1ccc(-c2nc3c(C)cc(C4CCN(C5CC6CCC(C5)N6C(C)C)CC4)cc3n2C)cc1OC (stereo not shown) [Example 145, 2-(3,4-dimethoxyphenyl)-6-(1-(8-isopropyl-8-azabicyclo[3.2.1]octan-3-yl)piperidin-4-yl)-1,4-dimethyl-1H-benzo[d]imidazole] |
| – | 23 nM | 23 nM | – | Cc1cc(C2CCN(C3CCCN(C4CCC4)CC3)CC2)cc2c1nc(-c1ccc(S(C)(=O)=O)cc1)n2C (stereo not shown) [Example 135, 6-(1-(1-cyclobutylazepan-4-yl)piperidin-4-yl)-1,4-dimethyl-2-(4-(methylsulfonyl)phenyl)-1H-benzo[d]imidazole] |
| 0.85 nM | 0.9 nM | – | – | CC(C)CN1CC2(CN(Cc3ccc(-c4cc(F)c5nc(-c6ccc(S(C)(=O)=O)cc6)n(C6CC6)c5c4)cc3)C2)C1 [Example 411, 1-cyclopropyl-4-fluoro-6-(4-((6-isobutyl-2,6-diazaspiro[3.3]heptan-2-yl)methyl)phenyl)-2-(4-(methylsulfonyl)phenyl)-1H-benzo[d]imidazole] |
